In PubChem BioAssay (NCI):
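Method: 48-hour compound exposure of cells in 96-well plates, five concentrations, linear interpolation of endpoints. TGI: concentration producing complete growth inhibition.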

What was measured:
Experiment in all cases: inhibition of tumour cell growth, NCI panel, 48 h
NCI-H522 lung = test system: NCI-H522 lung
SNB-75 CNS = test system: SNB-75 CNS
OVCAR-5 ovarian = test system: OVCAR-5 ovarian
KM12 colon = test system: KM12 colon
SK-OV-3 ovarian = test system: SK-OV-3 ovarian
M14 melanoma = test system: M14 melanoma
ACHN renal = test system: ACHN renal
SF-539 CNS = test system: SF-539 CNS
IGROV1 ovarian = test system: IGROV1 ovarian
SF-268 CNS = test system: SF-268 CNS
SK-MEL-5 melanoma = test system: SK-MEL-5 melanoma
MOLT-4 leukemia = test system: MOLT-4 leukemia
SR leukemia = test system: SR leukemia
CAKI-1 renal = test system: CAKI-1 renal
CCRF-CEM leukemia = test system: CCRF-CEM leukemia
PC-3 prostate = test system: PC-3 prostate
MCF7 breast = test system: MCF7 breast
MDA-MB-231 breast = test system: MDA-MB-231 breast
OVCAR-8 ovarian = test system: OVCAR-8 ovarian
OVCAR-4 ovarian = test system: OVCAR-4 ovarian
T-47D breast = test system: T-47D breast
NCI-H23 lung = test system: NCI-H23 lung
SNB-19 CNS = test system: SNB-19 CNS
TK-10 renal = test system: TK-10 renal
MDA-N = test system: MDA-N
786-0 renal = test system: 786-0 renal
HCT-116 colon = test system: HCT-116 colon
LOX IMVI melanoma = test system: LOX IMVI melanoma
MDA-MB-435 = test system: MDA-MB-435
COLO 205 colon = test system: COLO 205 colon
UO-31 renal = test system: UO-31 renal
UACC-257 melanoma = test system: UACC-257 melanoma
EKVX NSCLC = test system: EKVX NSCLC
SK-MEL-2 melanoma = test system: SK-MEL-2 melanoma
OVCAR-3 ovarian = test system: OVCAR-3 ovarian
U251 CNS = test system: U251 CNS
SN12C renal = test system: SN12C renal
HL-60(TB) leukemia = test system: HL-60(TB) leukemia
NCI-H460 lung = test system: NCI-H460 lung
A498 renal = test system: A498 renal
BT-549 breast = test system: BT-549 breast
NCI-H226 lung = test system: NCI-H226 lung
DU-145 prostate = test system: DU-145 prostate
A549 NSCLC = test system: A549 NSCLC
SF-295 CNS = test system: SF-295 CNS
HOP-92 NSCLC = test system: HOP-92 NSCLC
NCI/ADR-RES ovarian = test system: NCI/ADR-RES ovarian
HCT-15 colon = test system: HCT-15 colon
MALME-3M melanoma = test system: MALME-3M melanoma
HOP-62 NSCLC = test system: HOP-62 NSCLC
HS 578T breast = test system: HS 578T breast
K-562 leukemia = test system: K-562 leukemia
SW-620 colon = test system: SW-620 colon
HT29 colon = test system: HT29 colon
UACC-62 melanoma = test system: UACC-62 melanoma
HCC-2998 colon = test system: HCC-2998 colon
RPMI-8226 leukemia = test system: RPMI-8226 leukemia
SK-MEL-28 melanoma = test system: SK-MEL-28 melanoma

## C[N+](C)(CCNc1ccc(NCC[N+](C)(C)Cc2ccc([N+](=O)[O-])cc2)c2c1C(=O)c1ccccc1C2=O)Cc1ccc([N+](=O)[O-])cc1
NCI-H522 lung
  TGI: > 100 µM
SNB-75 CNS
  TGI: > 100 µM
OVCAR-5 ovarian
  TGI: > 100 µM
KM12 colon
  TGI: > 100 µM
SK-OV-3 ovarian
  TGI: > 100 µM
M14 melanoma
  TGI: > 100 µM
ACHN renal
  TGI: > 100 µM
SF-539 CNS
  TGI: > 100 µM
IGROV1 ovarian
  TGI: > 100 µM
SF-268 CNS
  TGI: > 100 µM
SK-MEL-5 melanoma
  TGI: > 100 µM
MOLT-4 leukemia
  TGI: > 100 µM
SR leukemia
  TGI: > 100 µM
CAKI-1 renal
  TGI: > 100 µM
CCRF-CEM leukemia
  TGI: > 100 µM
PC-3 prostate
  TGI: > 100 µM
MCF7 breast
  TGI: > 100 µM
MDA-MB-231 breast
  TGI: > 100 µM
OVCAR-8 ovarian
  TGI: > 100 µM
OVCAR-4 ovarian
  TGI: > 100 µM
T-47D breast
  TGI: > 100 µM
NCI-H23 lung
  TGI: > 100 µM
SNB-19 CNS
  TGI: > 100 µM
TK-10 renal
  TGI: > 100 µM
MDA-N
  TGI: > 100 µM
786-0 renal
  TGI: > 100 µM
HCT-116 colon
  TGI: > 100 µM
LOX IMVI melanoma
  TGI: > 100 µM
MDA-MB-435
  TGI: > 100 µM
COLO 205 colon
  TGI: > 100 µM
UO-31 renal
  TGI: > 100 µM
UACC-257 melanoma
  TGI: > 100 µM
EKVX NSCLC
  TGI: > 100 µM
SK-MEL-2 melanoma
  TGI: > 100 µM
OVCAR-3 ovarian
  TGI: > 100 µM
U251 CNS
  TGI: > 100 µM
SN12C renal
  TGI: > 100 µM
HL-60(TB) leukemia
  TGI: > 100 µM
NCI-H460 lung
  TGI: > 100 µM
A498 renal
  TGI: > 100 µM
BT-549 breast
  TGI: > 100 µM
NCI-H226 lung
  TGI: > 100 µM
DU-145 prostate
  TGI: > 100 µM
A549 NSCLC
  TGI: > 100 µM
SF-295 CNS
  TGI: > 100 µM
HOP-92 NSCLC
  TGI: > 100 µM
NCI/ADR-RES ovarian
  TGI: > 100 µM
HCT-15 colon
  TGI: > 100 µM
MALME-3M melanoma
  TGI: > 100 µM
HOP-62 NSCLC
  TGI: > 100 µM
HS 578T breast
  TGI: > 100 µM
K-562 leukemia
  TGI: > 100 µM
SW-620 colon
  TGI: > 100 µM
HT29 colon
  TGI: > 100 µM
UACC-62 melanoma
  TGI: > 100 µM
HCC-2998 colon
  TGI: > 100 µM

## CC(CCOc1ccc2ccc(=O)oc2c1)C1=CC(=O)C(C)(C)O1 (configuration not stated)
NCI-H522 lung
  TGI: 3.11 µM
OVCAR-5 ovarian
  TGI: 49.9 µM
KM12 colon
  TGI: 7.41 µM
SK-OV-3 ovarian
  TGI: 14.2 µM
M14 melanoma
  TGI: 26.5 µM
ACHN renal
  TGI: 12.4 µM
SF-539 CNS
  TGI: 4.37 µM
IGROV1 ovarian
  TGI: 14.8 µM
SF-268 CNS
  TGI: 5.28 µM
SK-MEL-5 melanoma
  TGI: 24 µM
MOLT-4 leukemia
  TGI: 6.37 µM
SR leukemia
  TGI: 3.42 µM
CAKI-1 renal
  TGI: 8.75 µM
CCRF-CEM leukemia
  TGI: 3.18 µM
PC-3 prostate
  TGI: 23.5 µM
MCF7 breast
  TGI: 14.7 µM
RPMI-8226 leukemia
  TGI: 7.31 µM
MDA-MB-231 breast
  TGI: 12.5 µM
OVCAR-8 ovarian
  TGI: 4.45 µM
OVCAR-4 ovarian
  TGI: 22.5 µM
T-47D breast
  TGI: 6.06 µM
NCI-H23 lung
  TGI: 11.9 µM
SNB-19 CNS
  TGI: 18.2 µM
TK-10 renal
  TGI: 13.3 µM
MDA-N
  TGI: 16.4 µM
786-0 renal
  TGI: 7.69 µM
HCT-116 colon
  TGI: 10 µM
LOX IMVI melanoma
  TGI: > 100 µM
MDA-MB-435
  TGI: 11.5 µM
COLO 205 colon
  TGI: 5.97 µM
UO-31 renal
  TGI: 12.1 µM
UACC-257 melanoma
  TGI: 20.6 µM
EKVX NSCLC
  TGI: 15.1 µM
SK-MEL-2 melanoma
  TGI: 26.3 µM
OVCAR-3 ovarian
  TGI: 11.6 µM
U251 CNS
  TGI: 10.3 µM
SN12C renal
  TGI: 4.09 µM
HL-60(TB) leukemia
  TGI: 5.31 µM
NCI-H460 lung
  TGI: 3.94 µM
A498 renal
  TGI: 5.52 µM
BT-549 breast
  TGI: 11 µM
NCI-H226 lung
  TGI: 22.5 µM
DU-145 prostate
  TGI: 12.5 µM
A549 NSCLC
  TGI: 10.6 µM
SF-295 CNS
  TGI: 14.3 µM
HOP-92 NSCLC
  TGI: 13.2 µM
NCI/ADR-RES ovarian
  TGI: 5.62 µM
HCT-15 colon
  TGI: 5.68 µM
MALME-3M melanoma
  TGI: 10.8 µM
HOP-62 NSCLC
  TGI: 21.3 µM
HS 578T breast
  TGI: 6.84 µM
SW-620 colon
  TGI: 4.93 µM
SK-MEL-28 melanoma
  TGI: 12.2 µM
HT29 colon
  TGI: 10.4 µM
UACC-62 melanoma
  TGI: 14.9 µM
HCC-2998 colon
  TGI: 5.71 µM
